Measurements published in patent US10611740B2, “Aryl dihydro-2H-benzo[b][1,4]oxazine sulfonamide and related compounds for use as agonists of RORγ and the treatment of disease” (Lycera Corporation, priority 2015, dated 2020).

Experiments:
Gal4-RORγ-LBD = molecular target: T1, Gal4-RORγ-LBD (Homo sapiens, UniProt P51449); assay: Gal4-RORγ Luciferase Reporter Assay in HEK-293T Cells; format: cell-based; settings: HEK-293 cells, luciferase reporter, with 2 μM ursolic acid
T1 construct: expressed in transfected cells; host or cells: HEK-293 cells (pcDNA3.1neo plasmid)
T1 sequence (P51449 269-508 limits assumed): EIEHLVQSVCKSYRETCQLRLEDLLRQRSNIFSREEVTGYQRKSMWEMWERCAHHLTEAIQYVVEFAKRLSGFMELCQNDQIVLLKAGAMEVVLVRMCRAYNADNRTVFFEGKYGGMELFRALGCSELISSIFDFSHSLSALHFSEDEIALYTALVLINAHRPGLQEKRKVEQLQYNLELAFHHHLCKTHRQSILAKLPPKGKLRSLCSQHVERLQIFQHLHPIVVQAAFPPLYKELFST
Outline: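 HEK-293 cells were transiently co-transfected with Gal4-RORγ-LBD and pGL4.31 Gal4-luciferase, with ursolic acid added at 2 μM final. Compounds were incubated overnight at 37° C. in 0.2% DMSO and luminescence read with One-Glo. Max Response is the upper plateau of a 4-parameter logistic fit, with signal lacking ursolic acid or compound set to 100.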

RORγ-LBD = molecular target: T2, RORγ-LBD (Homo sapiens, UniProt P51449); assay: RORγ-Ligand Binding Domain (LBD) TR-FRET Assay; format: biochemical;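 for TR-FRET Assay Max Response: 665/615 nm ratio relative to signal without ursolic acid or compound set at 100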
T2 construct: made in house; host or cells: SF9 cells (baculovirus)
T2 sequence (P51449 269-508 limits assumed): T1 sequence (P51449 269-508 limits assumed)
Outline: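 Compounds, diluted in DMSO and then in assay buffer (1% DMSO final), were combined with His-tagged RORγ-LBD lysate at roughly 3 nM final and a 200 nM biotinylated SRC1 LXXLL peptide. Ursolic acid was included at 2 μM final. Coactivator recruitment was detected by TR-FRET.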

SMILES: C[C@@H](O)C(=O)NC[C@H]1CN(S(=O)(=O)c2cccc(C(F)(F)F)c2)c2cc(-c3cc(F)ccc3F)ccc2O1 [Compound 30AF, (R)-N-(((S)-6-(2,5-difluoro-phenyl)-4-((3-(trifluoromethyl)-phenyl)sulfonyl)-3,4-dihydro-2H-benzo[b][1,4]oxazin-2-yl)-methyl)-2-hydroxypropanamide]
- EC50 (Gal4-RORγ-LBD): < 500 nM
- Gal4-RORγ Assay Max Response (Gal4-RORγ-LBD): ** (The symbol “**” indicates a value in the range of greater than 90 to 150)
- EC50 (RORγ-LBD): < 500 nM
- TR-FRET Assay Max Response (RORγ-LBD): *** (The symbol “***” indicates a value in the range of greater than 150 to 200)

SMILES: O=C(NC[C@H]1CN(S(=O)(=O)c2cccc(C(F)(F)F)c2)c2cc(-c3cc(F)ccc3F)ccc2O1)C1(O)CC1 [Compound 30AG, (S)-N-((6-(2,5-difluorophenyl)-4-((3-(trifluoromethyl)phenyl)-sulfonyl)-3,4-dihydro-2H-benzo[b][1,4]oxazin-2-yl)methyl)-1-hydroxycyclo-propane-1-carboxamide]
- EC50 (Gal4-RORγ-LBD): < 500 nM
- Gal4-RORγ Assay Max Response (Gal4-RORγ-LBD): ** (The symbol “**” indicates a value in the range of greater than 90 to 150)
- EC50 (RORγ-LBD): < 500 nM
- TR-FRET Assay Max Response (RORγ-LBD): *** (The symbol “***” indicates a value in the range of greater than 150 to 200)

SMILES: Cn1cc(C(=O)NC[C@H]2CN(S(=O)(=O)c3cccc(C(F)(F)F)c3)c3cc(-c4cc(F)ccc4F)ccc3O2)cn1 [Compound 30AH, (S)-N-((6-(2,5-difluorophenyl)-4-((3-(trifluoromethyl)phenyl)-sulfonyl)-3,4-dihydro-2H-benzo[b][1,4]oxazin-2-yl)methyl)-1-methyl-1H-pyrazole-4-carboxamide]
- EC50 (Gal4-RORγ-LBD): < 500 nM
- Gal4-RORγ Assay Max Response (Gal4-RORγ-LBD): ** (The symbol “**” indicates a value in the range of greater than 90 to 150)
- EC50 (RORγ-LBD): < 500 nM
- TR-FRET Assay Max Response (RORγ-LBD): *** (The symbol “***” indicates a value in the range of greater than 150 to 200)

SMILES: Cn1ccc(C(=O)NC[C@H]2CN(S(=O)(=O)c3cccc(C(F)(F)F)c3)c3cc(-c4cc(F)ccc4F)ccc3O2)n1 [Compound 30AI, (S)-N-((6-(2,5-difluorophenyl)-4-((3-(trifluoromethyl)phenyl)-sulfonyl)-3,4-dihydro-2H-benzo[b][1,4]oxazin-2-yl)methyl)-1-methyl-1H-pyrazole-3-carboxamide]
- EC50 (Gal4-RORγ-LBD): < 500 nM
- Gal4-RORγ Assay Max Response (Gal4-RORγ-LBD): ** (The symbol “**” indicates a value in the range of greater than 90 to 150)
- EC50 (RORγ-LBD): < 500 nM
- TR-FRET Assay Max Response (RORγ-LBD): *** (The symbol “***” indicates a value in the range of greater than 150 to 200)

SMILES: O=C(NC[C@H]1CN(S(=O)(=O)c2cccc(C(F)(F)F)c2)c2cc(-c3cc(F)ccc3F)ccc2O1)c1cocn1 [Compound 30AJ, (S)-N-((6-(2,5-difluorophenyl)-4-((3-(trifluoromethyl)phenyl)-sulfonyl)-3,4-dihydro-2H-benzo[b][1,4]oxazin-2-yl)methyl)oxazole-4-carboxamide]
- EC50 (Gal4-RORγ-LBD): < 500 nM
- Gal4-RORγ Assay Max Response (Gal4-RORγ-LBD): ** (The symbol “**” indicates a value in the range of greater than 90 to 150)
- EC50 (RORγ-LBD): < 500 nM
- TR-FRET Assay Max Response (RORγ-LBD): **** (The symbol “****” indicates a value greater than 200)

SMILES: O=C(NC[C@H]1CN(S(=O)(=O)c2cccc(C(F)(F)F)c2)c2cc(-c3cc(F)ccc3F)ccc2O1)c1cnco1 [Compound 30AK, (S)-N-((6-(2,5-difluorophenyl)-4-((3-(trifluoromethyl)phenyl)-sulfonyl)-3,4-dihydro-2H-benzo[b][1,4]oxazin-2-yl)methyl)oxazole-5-carboxamide]
- EC50 (Gal4-RORγ-LBD): 500 to 5000 nM
- Gal4-RORγ Assay Max Response (Gal4-RORγ-LBD): ** (The symbol “**” indicates a value in the range of greater than 90 to 150)
- EC50 (RORγ-LBD): < 500 nM
- TR-FRET Assay Max Response (RORγ-LBD): **** (The symbol “****” indicates a value greater than 200)
